# Values quoted from earlier work, collected in patent publication US8951969B2, “Compositions and methods for treating centrally mediated nausea and vomiting” (Helsinn Healthcare S.A., priority 2009, dated 2015).
# How the values were obtained:
# [1] = system: nausea following moderately or highly emetogenic chemotherapy; settings: humans, compared to a 5-HT3 antagonist alone; cited from earlier work
# [2] = system: nausea, moderately emetogenic chemotherapy; settings: cited from earlier work
Compound,effect on incidence or severity of nausea [1],effect against nausea ([2]; administered in response to moderately emetogenic chemotherapy),side effect ([2]; moderately emetogenic chemotherapy)
C[C@@H](O[C@H]1OCCN(Cc2n[nH]c(=O)[nH]2)[C@H]1c1ccc(F)cc1)c1cc(C(F)(F)F)cc(C(F)(F)F)c1 [aprepitant],unable to induce a significant reduction in the incidence or severity of nausea,,
"CC(=O)N1CCN([C@H]2CCN(C(=O)N(C)[C@H](C)c3cc(C(F)(F)F)cc(C(F)(F)F)c3)[C@@H](c3ccc(F)cc3C)C2)CC1 [casopitant, (2R,4S)-4-(4-acetytlpiperazin-1-yl)-N-{(1R)-1-[3,5-bis(trifluoromethyl)phenyl]ethyl}-2-(4-fluoro-2-methylphenyl)-N-methylpiperidine-1-carboxamide]",,no statistically significant effect against nausea,induced nausea as a side effect
